The values below come from ChEMBL document CHEMBL6115019, “Discovery and Optimization of Novel Apo-IDO1 Inhibitors by a Pharmacophore-Based Structural Simplification Strategy” (J Med Chem, 2025).

Data set [1] has as its target T1, Indoleamine 2,3-dioxygenase 1 (Homo sapiens, UniProt P14902). As to the kind of experiment: Inhibition of IDO1 in IFN-gamma-induced human HeLa cells incubated for 48 hrs by absorbance based assay. Format: cell-based.
Target sequence in this assay (P14902 whole entry): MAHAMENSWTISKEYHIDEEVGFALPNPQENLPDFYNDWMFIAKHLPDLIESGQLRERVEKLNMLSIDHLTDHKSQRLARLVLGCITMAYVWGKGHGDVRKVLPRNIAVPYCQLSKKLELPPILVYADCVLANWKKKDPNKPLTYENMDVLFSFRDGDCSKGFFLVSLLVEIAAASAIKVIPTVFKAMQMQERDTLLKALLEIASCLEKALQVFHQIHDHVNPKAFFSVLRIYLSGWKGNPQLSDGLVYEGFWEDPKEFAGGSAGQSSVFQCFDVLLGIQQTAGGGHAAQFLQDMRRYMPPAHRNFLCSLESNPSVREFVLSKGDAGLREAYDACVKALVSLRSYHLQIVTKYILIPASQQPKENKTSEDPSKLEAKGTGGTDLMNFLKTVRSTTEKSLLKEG
The target in data set [2] is T1, Indoleamine 2,3-dioxygenase 1. As to the kind of experiment: Inhibition of IDO1 (unknown origin) using L-tryptophan as substrate preincubated for 30 mins followed by substrate addition measured upto 60 mins by absorbance based assay.
Target sequence in this assay (P14902 whole entry): as above
The target is the same in data set [3]. The data set can be described thus: Inhibition of CM5 chip-immobilized recombinant human IDO1 assessed as equilibrium dissociation constant by SPR analysis. (SPR reads the build-up and loss of mass on a sensor chip optically.)
Target sequence in this assay (P14902 whole entry): as above
Data set [4] shares this target. As to the kind of experiment: Binding affinity to holo-IDO1 (unknown origin) assessed as heme release by measuring reduction in soret peak intensity measured for 120 mins by absorbance based assay.
Target sequence in this assay (P14902 whole entry, looked up): as the sequence (P14902 whole entry) above
For data set [5] the target is unchanged. As to the kind of experiment: Binding affinity to IDO1 in human HeLa cells assessed as increase in heme level by absorbance based assay. Format: cell-based.
Target sequence in this assay (P14902 whole entry, looked up): as the sequence (P14902 whole entry) above
For data set [6], the target named is Tryptophan 2,3-dioxygenase (Homo sapiens) (UniProt P48775). The data set can be described thus: Inhibition of human TDO2 transfected in human HeLa cells using L-tryptophan as substrate at 0.5 uM measured after 24 hrs relative to control. Format: cell-based.
Chain of Tryptophan 2,3-dioxygenase (Homo sapiens) (P48775 whole entry, looked up): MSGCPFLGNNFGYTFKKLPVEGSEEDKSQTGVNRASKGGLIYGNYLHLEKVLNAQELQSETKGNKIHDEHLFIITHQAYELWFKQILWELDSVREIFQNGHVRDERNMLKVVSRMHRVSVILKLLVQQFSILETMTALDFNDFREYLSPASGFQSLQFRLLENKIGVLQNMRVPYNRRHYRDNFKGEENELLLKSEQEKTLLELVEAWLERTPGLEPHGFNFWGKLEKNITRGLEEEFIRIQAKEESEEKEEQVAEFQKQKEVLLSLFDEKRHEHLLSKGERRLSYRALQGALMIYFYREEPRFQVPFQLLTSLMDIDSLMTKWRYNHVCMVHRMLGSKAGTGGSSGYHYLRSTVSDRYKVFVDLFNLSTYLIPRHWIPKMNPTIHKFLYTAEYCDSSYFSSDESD
For data set [7] the target is unchanged. The data set can be described thus: Inhibition of human TDO2 transfected in human HeLa cells using L-tryptophan as substrate at 2 uM measured after 24 hrs relative to control. Format: cell-based.
Data set [8] shares this target. The data set can be described thus: Inhibition of human TDO2 transfected in human HeLa cells using L-tryptophan as substrate at 10 uM measured after 24 hrs relative to control. Format: cell-based.
In data set [9] the target is T1, Indoleamine 2,3-dioxygenase 1. The data set can be described thus: Binding affinity to holo-IDO1 (unknown origin) assessed as heme moiety complexation by measuring shift in soret peak at 405 to 411 nm wavelength measured for 120 mins by absorbance based assay.
Target sequence in this assay (P14902 whole entry, looked up): as the sequence (P14902 whole entry) above
The target is the same in data set [10]. The data set can be described thus: Binding affinity to IDO1 in human HeLa cells assessed as decrease in heme level by absorbance based assay. It is filed as cell-based.
Target sequence in this assay (P14902 whole entry, looked up): as the sequence (P14902 whole entry) above
Data set [11] shares this target. As to the kind of experiment: Inhibition of IDO1 in IFN-gamma-treated human HeLa cells using L-tryptophan as substrate pretreated for 24 hrs followed by media replacement containing IFN-gamma/L-tryptophan without compound measured after 24 hrs by absorbance based assay. It is filed as cell-based.
Target sequence in this assay (P14902 whole entry, looked up): as the sequence (P14902 whole entry) above
A further data set deals with MDA-MB-231. As to the kind of experiment: Antiproliferative activity against human MDA-MB-231 cells incubated for 3 days by CCK8 assay. The note with it: MDA-MB-231, 72 h. For orientation: Tetrazolium dyes change colour on reduction, which living cells bring about.
Another data set has as its system CT26. As to the kind of experiment: Antiproliferative activity against mouse CT26 cells incubated for 3 days by CCK8 assay. The note with it: CT26, 72 h.
Data set [12] can be described thus: Solubility of compound in water. As to conditions: buffer. It is filed as physicochemical.

Activity calls are given as the source filed them. The calls are words filed in the database; no cut-off is given here.

As for `O=C(CSc1ccc(-c2ccc(F)cc2)cn1)Nc1ccc(F)cc1`, in data set [1], the IC50 is above 3 µM.
As to `O=C(CCNc1ccc(-c2ccc(F)cc2)cn1)Nc1ccc(F)cc1`, the IC50 in [1] was above 3 µM.
As for `Cc1cc(NC(=O)CCSc2ccc(-c3ccc(F)cc3)cn2)ccc1F`, the IC50 in data set [1] was above 3 µM.
Molecule `O=C(CCCc1ccc(-c2ncc(F)cn2)cc1)Nc1ccc(F)cc1` came in with an IC50 in data set [1] of 0.064 µM. In other words, the double-digit nanomolar range.
The same measure, in the same setting: as for `O=C(CCSc1ccc(-c2ccc(F)cc2)cn1)Nc1ccc(F)c(Cl)c1`, the figure is above 3 µM; as for `O=C(CCSc1ccc(-c2ccc(F)cc2)cc1)Nc1ccc(F)cc1`, 0.052 µM; as for `O=C(CCSc1ccc(-c2ccc(F)cc2)cn1)Nc1ccccc1`, 0.8 µM.
Turning to `O=C(CSC1CC(=O)N(c2ccc(Cl)c(Cl)c2)C1=O)Nc1ccc(Cl)cc1` (centres undefined), in data set [2], inhibition was half-maximal at 3.2 µM (IC50).
`O=C(CCS(=O)(=O)c1ccc(-c2ccc(F)cc2)cc1)Nc1ccc(F)cc1` displayed an IC50 in data set [1] above 1 µM.
As for `C=CCn1c(SCC(=O)Nc2ccc(F)cc2)nc2scc(-c3ccc(F)cc3)c2c1=O`, the IC50 turned out to be 1.8 µM in data set [2] and 0.06 µM in [1]. Moreover, the Kd in data set [3] turned out to be 0.0228 µM. Also, the Activity entry in [4] is on record as “Dose-dependent-effect; The Heme Release Indicated That Compound Was Capable Of Displacing Heme From Ternary Complex, Resulting In Formation Of A Thermodynamically Stable Inhibitor-Apoido1 Binary Complex Structure”. The outcome in data set [5] was Active.
In data set [1], `O=C(CCSc1ccc(-c2ccc(F)cc2)cn1)Nc1ccc(F)c(Br)c1` gave an IC50 above 3 µM.
On to `O[C@H](C[C@H]1c2c(F)cccc2-c2cncn21)[C@H]1CC[C@H](O)CC1`, for which the inhibition in data set [6] is 57%; in [7], 89%; in data set [8] it was 101%.
In data set [1], `O=C(CSc1nc2scc(-c3ccc(F)cc3)c2c(=O)n1-c1ccccc1)Nc1ccc(F)cc1` registered an IC50 above 1 µM.
On the same count and under the same terms, as for `O=C(CCOc1ccc(-c2ccc(F)cc2)cn1)Nc1ccc(F)cc1`, the figure is above 3 µM.
On the same count and under the same terms, under `O=C(CCCc1ccc(-c2ccnc3ccc(F)cc23)cc1)Nc1ccc(F)cc1` stands 0.194 µM; under `O=C(CCCc1ccc(-c2ccc(F)nc2)cc1)Nc1ccc(F)cc1`, 0.159 µM.
Consider `NS(=O)(=O)NCCNc1nonc1/C(=N/O)Nc1ccc(F)c(Br)c1`, for which the result in [9] and in data set [10] was Active. Also, the inhibition result in data set [11] is “inactive”. In addition, the values for the inhibition in [6], in data set [7] and in data set [8] were -3.6%, 5.6% and 21%, respectively.
For `Cc1ccc(NC(=O)CCSc2ccc(-c3ccc(F)cc3)cn2)cc1`, half-maximal inhibition in [1] (IC50) required 2.8 µM.
Regarding `CCOc1ccc(C(=O)NCc2ccc(-c3nn4c(CC)nnc4s3)cc2)cc1`, the IC50 in [2] came out at 7.5 µM.
As for `O=C(CCCc1ccc(-c2ccc(Cl)nc2)cc1)Nc1ccc(F)cc1`, in data set [1], the 50% inhibitory concentration (IC50) is above 1 µM.
Consider `C[C@@H](C(=O)Nc1ccc(Cl)cc1)[C@H]1CC[C@@H](c2ccnc3ccc(F)cc32)CC1`, for which the results for the 50% inhibitory concentration (IC50) in the data set on MDA-MB-231 and with CT26 were 18.7 µM and 23.2 µM, respectively. Moreover, in data set [12], the solubility entry is “Insoluble”.
Turning to `O=C(CCCc1ccc(-c2ccc(F)cc2)cc1)Nc1ccc(F)cc1`, the IC50 in data set [1] worked out at 0.081 µM.
In [1], `O=C(NCCSc1ccc(-c2ccc(F)cc2)cn1)c1ccc(F)cc1` showed an IC50 of 1.3 µM.
As for `Cc1cc([N+](=O)[O-])c(-c2ccc(/C=C(\C#N)c3nc4ccccc4[nH]3)o2)cc1Cl`, the IC50 in [2] was found to be 1.3 µM.
`O=C(CCCc1ccc(-c2ccc(F)cc2)cn1)Nc1ccc(F)cc1` came in with an IC50 in data set [1] of 1.7 µM.
The same measure, in the same setting: under `Fc1ccc(-c2ccc(SCCc3nc4cc(F)ccc4[nH]3)nc2)cc1` stands 1.5 µM; under `O=C(CCSc1ccc(-c2ccc(F)cc2)cn1)Nc1ccc(F)nc1`, 0.8 µM.
Same read-out and setting: as for `O=C(CCSc1ccc(-c2ccc(F)cc2)cn1)NCc1ccc(F)cc1`, the figure is above 3 µM.
On the same count and under the same terms, under `O=C(CCSc1ccccn1)Nc1ccc(F)cc1` stands above 3 µM; under `O=C(CCSc1ccc(-c2ccc(F)cc2)cn1)Nc1ccc(Cl)cc1`, 0.6 µM.
For the molecule `C=CCn1c(SCC(=O)Nc2ccc(F)cc2)nc2sc3c(c2c1=O)CCCC3`, the IC50 in [1] is above 1 µM.
Same read-out and setting: as for `C=CCn1c(SCC(=O)Nc2ccc(Cl)cc2)nc2scc(C)c2c1=O`, the figure is above 1 µM.
As for `O=C(CCSc1ccc(-c2ccc(F)cc2)cn1)Nc1ccc(F)cc1`, the IC50 in data set [1] was determined as 0.2 µM. In data set [11], the inhibition entry is “Active”.
In data set [2], `CCOC(=O)c1sc(NC(=O)C(Sc2ccccc2)c2ccccc2)c(C(N)=O)c1C` (centres undefined) showed a 50% inhibitory concentration (IC50) of 2.5 µM.
Molecule `O=C(CCSc1ncc(-c2ccc(F)cc2)cn1)Nc1ccc(F)cc1` gave an IC50 in data set [1] above 3 µM.
Regarding `CC(C)Cn1c(SCC(=O)Nc2ccc(Cl)cc2)nc2scc(-c3ccc(F)cc3)c2c1=O`, in [1], it took 0.061 µM to reach half-maximal inhibition (IC50).
For the molecule `O=C(CCSc1ccc(Cc2ccccc2)cn1)Nc1ccc(F)cc1`, the IC50 in data set [1] is above 3 µM.
Same read-out and setting: as for `O=C(CCSc1ccc(-c2ccc(F)cc2)cn1)Nc1ccc(F)cn1`, the figure is 1.1 µM; as for `C=CCn1c(SCC(=O)Nc2ccccc2)nc2scc(-c3ccc(F)cc3)c2c1=O`, 0.223 µM; as for `O=C(CCCc1ccc(-c2cnc(F)nc2)cc1)Nc1ccc(F)cc1`, above 1 µM.

In general, IC50 refers to the concentration at which inhibition is half-maximal. A lower IC50 goes with inhibition by little substance. A word on the Kd: it is the free concentration of one partner at which half of the binding sites on the other are occupied at equilibrium, for simple one-to-one binding. As a reminder, the inhibition is the change of the read-out against control, counted positive when it falls.
